According to patent publication US6414004B1 (priority 1998, dated 2002):

Columns and labels:
HEp2 cells = assay: Cytotoxicity, HEp2 cell proliferation (microscopy, MTT test); format: cell-based; details: 48-72 h incubation at 37° C.
Procedure: (§1) The cytotoxicity of each substance was determined by direct observation under microscope, and mitochondrial dehydrogenases activities were assayed according to the MTT test (F. Denizot et al., Immunol. Methods, 1986, 89, 271).
(§2) The concentration of compound which, after 48-72 h of incubation at 37° C., inhibited by 50% the cell proliferation was defined as cytotoxic dose 50% (CD50).

HeLa cells = assay: Cytotoxicity, HeLa cell proliferation (microscopy, MTT test); format: cell-based; details: 48-72 h incubation at 37° C.
Procedure: as §1, §2

ECHO 9 (ATCC: VR-133) = assay: Antiviral activity, direct inhibition of plaque number; format: cell-based; details: ECHO 9, plaque reduction; read-out: Concentration inhibiting by 100% viral replication
[1] = test system: Measles (Edmonston strain); assay: as above; format: cell-based; details: Measles morbillivirus, read-out: Concentration inhibiting by 100% viral replication
[2] = test system: Coxsackie B1 (ATCC: VR-28); assay: as above; format: cell-based; details: Coxsackie B1, plaque reduction; read-out: Concentration inhibiting by 100% viral replication
HRV-14 = assay: Rhinovirus cytopathic effect reduction in HeLa-Ohio cells (MTT test); format: cell-based; details: HRV-14, HeLa-Ohio cells
HRV-29 = assay: as above; format: cell-based; details: HRV-29, HeLa-Ohio cells
HRV-70 = assay: as above; format: cell-based; details: Enterovirus, HRV70; HRV-70, HeLa-Ohio cells; read-out: Concentration inhibiting by 100% viral replication
HRV-86 = assay: as above; format: cell-based; details: Enterovirus, HRV86; HRV-86, HeLa-Ohio cells; read-out: Concentration inhibiting by 100% viral replication
HRV-89 = assay: as above; format: cell-based; details: HRV-89, HeLa-Ohio cells
HRV-1B = assay: as above; format: cell-based
[3] = test system: Polio 1 (Brunhilde strain); format: cell-based; details: Polio 1, plaque reduction
HRV-2 = assay: Rhinovirus cytopathic effect reduction in HeLa-Ohio cells (MTT test); format: cell-based; details: HRV-2, HeLa-Ohio cells
HRV-9 = assay: as above; format: cell-based; details: HRV-9, HeLa-Ohio cells
HRV-15 = assay: as above; format: cell-based; details: HRV-15, HeLa-Ohio cells

| Structure (SMILES) | Concentration inhibiting by 50% HEp2 cell proliferation: CD50 (HEp2 cells) [µM] | Concentration inhibiting by 50% HeLa cell proliferation: CD50 (HeLa cells) [µM] | IC100 (ECHO 9 (ATCC: VR-133)) [µM] | IC100 [1] [µM] | IC100 [2] [µM] | Concentration inhibiting by 100% viral replication (HRV-14) [µM] | Concentration inhibiting by 100% viral replication (HRV-29) [µM] | IC100 (HRV-70) [µM] | IC100 (HRV-86) [µM] | Concentration inhibiting by 100% viral replication (HRV-89) [µM] | Concentration inhibiting by 100% viral replication (HRV-1B) [µM] | melting point [°C] | Concentration inhibiting by 100% viral replication [3] [µM] | Concentration inhibiting by 100% viral replication (HRV-2) [µM] | Concentration inhibiting by 100% viral replication (HRV-9) [µM] | Concentration inhibiting by 100% viral replication (HRV-15) [µM] |
| --- | --- | --- | --- | --- | --- | --- | --- | --- | --- | --- | --- | --- | --- | --- | --- | --- |
| CSc1noc(-c2ccc(OCCCCOc3ccccc3)cc2)c1C#N [ON-10, 3-Methylthio-5-[4-(4-phenoxy-1-butoxy)-phenyl]-4-isoxazolecarbonitrile] | 10 | 10 | 1 | 0.02 | 0.02 | 1 | 1 | 1 | 1 | 1 | 2 | 113 to 114 | – | – | – | – |
| CSc1noc(-c2ccc(OCCOc3ccc(C)cc3)cc2)c1C#N [ON-12, 3-Methylthio-5-[4-[2-(4-methylphenoxy)ethoxy]phenyl]-4-isoxazolecarbonitrile] | > 25 | > 25 | 0.06 | 10 | 10 | – | – | 5 | 5 | 5 | – | 139 to 140 | 1 | – | – | – |
| CSc1noc(-c2ccc(OCCOc3ccc(Br)cc3)cc2)c1C#N [ON-14, 3-Methylthio-5-[4-[2-(4-bromophenoxy)ethoxy]phenyl]-4-isoxazolecarbonitrile] | > 25 | 10 | 0.06 | 0.2 | 0.06 | 2 | – | 2 | 2 | 2 | – | 156 to 157 | 1 | – | – | – |
| CSc1noc(-c2ccc(OCCCc3ccccc3)cc2)c1C#N [ON-7, 3-Methylthio-5-[4-(3-phenyl-1-propoxy)-phenyl]-4-isoxazolecarbonitrile] | > 25 | > 25 | 0.2 | 10 | 0.6 | – | 5 | 5 | 5 | 5 | 5 | 99 to 100 | 0.4 | – | – | – |
| CSc1noc(-c2ccc(OCCOc3ccc([N+](=O)[O-])cc3)cc2)c1C#N [ON-11, 3-Methylthio-5-[4-[2-(4-nitrophenoxy)ethoxy]phenyl]-4-isoxazolecarbonitrile] | 25 | 10 | 4 | 10 | 10 | – | – | 8 | 2 | – | – | 170 to 171 | – | – | – | – |
| CSc1noc(-c2ccc(OCCCOc3ccccc3)cc2)c1C#N [ON-9, 3-Methylthio-5-[4-(3-phenoxy-1-propoxy)-phenyl]-4-isoxazolecarbonitrile] | 20 | 20 | 0.1 | 10 | 1 | – | – | 5 | 5 | 5 | 10 | 121 to 123 | – | – | – | – |
| CSc1noc(-c2ccc(OCCc3ccccc3)cc2)c1C#N [ON-6, 3-Methylthio-5-[4-(2-phenyl-1-ethoxy)-phenyl]-4-isoxazolecarbonitrile] | > 20 | > 20 | 0.2 | 1 | 10 | – | 2 | 10 | 6 | 2 | 5 | – | 0.2 | 4 | 8 | 6 |
| CSc1noc(-c2ccc(OCCOc3ccccc3)cc2)c1C#N [ON-8, 3-Methylthio-5-[4-(2-phenoxy-1-ethoxy)-phenyl]-4-isoxazolecarbonitrile] | > 25 | > 25 | 0.2 | – | 10 | – | – | 5 | 5 | 5 | 5 | 128 to 131 | 10 | – | – | – |
| CCOC(=O)c1ccc(OCCOc2ccc(-c3onc(SC)c3C#N)cc2)cc1 [ON-13, Ethyl-4-[[2-[4-(3-methylthio-4-cyano-5-isoxazolyl)-phenoxy]-ethyl]-oxy]benzoate] | 25 | 10 | – | 0.2 | 0.1 | 2 | – | 1 | 1 | – | – | 162 to 164 | 10 | – | – | – |
